Target: T1, AQ STING (G230A-R293Q) (Homo sapiens, UniProt Q86WV6, G230A/H232R/R293Q)
T1 construct: truncated human WT STING or AQ STING (amino acid residues 140-343); 8xHis (N, cleaved yes); SUMO (N, cleaved yes); made in house; host or cells: E. coli Rosetta-gami B (DE3)
Assay: Differential scanning fluorimetry (DSF) with AQ STING
Type: binding
Settings: thermal shift, truncated human AQ STING 0.1 mg/ml, 150 μM CDN; read-out: DSF ΔTm AQ STING
From the text: Both WT and AQ human STING (G230A-R^293Q) cDNA were amplified by the use of PCR (Phusion® High-Fidelity DNA Polymerase, cat. # M0530S, NEB, Ipswich, USA) using oligonucleotides hSTING140-BamH-For ([…]) (SEQ ID NO:5) and hSTING379-Not-Rev3 ([…]) (SEQ ID NO:6) from pUNOI-hSTING-WT (cat. # punol-hstingwt, InvivoGen, San Diego, USA) and pUNO1-hSTING-HAQ plasmids (punol-hsting-haq, InvivoGen, San Diego, USA). Purified PCR products were cleaved with restriction enzymes BamHI (cat. # R^0136S, NEB, Ipswich, USA) and NotI (cat. # R^0189S, NEB, Ipswich, USA) and cloned into the pSUMO vector linearized with the identical enzymes. Plasmid pSUMO was created by introducing 8-His-SUMO sequence between NdeI and BamHI sites of pHis-parallel2 plasmid (Clontech, Moutain View, USA). pSUMO-STING WT or pSUMO-STING AQ plasmids thus encoded truncated human WT STING or AQ STING (amino acid residues 140-343) with N-terminal 8×His and SUMO tag.
The recombinant WT STING and AQ STING proteins were overexpressed in Rosetta-gami B (DE3) competent cells (cat. #71136-3, Merck Millipore, Billerica, USA). Bacterial pellets were re-suspended in ice-cold lysis buffer containing 50 mmol·l^−1 TrisCl (cat. # T1503, Sigma Aldrich, Czech Republic) pH 8.0, 300 mmol·l^−1 NaCl, 3 mmol·l^−1 (3-mercaptoethanol (cat. # M6250, Sigma Aldrich, Czech Republic), 10% glycerol (cat. #G5516, Sigma Aldrich, Czech Republic) and 20 mmol·l^−1 imidazole (cat. #15513, Sigma Aldrich, Czech Republic) using Dounce homogenizer. DNase I (cat. # D5025, Sigma Aldrich, Czech Republic) and RNase A (cat. # R^6513, Sigma Aldrich, Czech Republic) were added (final concentration 50 μg/ml) together with MgCl2 (final concentration 5 mmol·l^−1) to the homogenate and bacteria were lysed using French Press G-M™ High-Pressure Cell Press Homogenizer (1500 psi, 3 cycles). Lysate was spun 30,000 g for 20 minutes and supernatant was gently stirred with Ni-NTA resin (cat. #745400.25 Macherey-Nagel, Duren, Germany) for 30 minutes. The resin was poured into a chromatography column, washed with 50 ml buffer A (50 mmol·l^−1 TrisCl (pH 8.0), 800 mmol·l^−1 NaCl, 3 mmol·l^−1β-mercaptoethanol; 10% glycerol; 20 mmol·l^−1 imidazole) and 8-His-SUMO tagged STING proteins were eluted with 15 ml buffer A containing 300 mmol·l^−1 imidazole. The eluted proteins were cleaved with recombinant SUMO protease (80 pig/ml of protein solution, cat. #12588018, ThermoFisher, Waltham, USA). The proteins were further purified by size exclusion chromatography using HiLoad 16/60 Superdex 75 (cat. #28989333, GE Healthcare Bio-Sciences, Pittsburgh, USA) in 50 mmol·l^−1 Tris C1 buffer pH 7.4 containing 150 mmol·l^−1 NaCl, and 10% glycerol. Proteins were concentrated with Amicon® Ultra-15 10 K device (cat. # UFC901008, Merck Millipore, Billerica, USA) and flash frozen in liquid N2.
WT and AQ allelic forms of STING protein were diluted to the final concentration 0.1 mg/ml in 100 mmol·l^−1 TrisCl buffer pH 7.4 containing, 150 mmol·l^−1 NaCl, 1:500 SYPRO Orange (cat. # S6650, ThermoFisher, Waltham, USA) and 150 μM CDN or water. 20 μL solutions of the reaction mixtures were pipetted in triplicates into 96 well optical reaction plates and thermal denaturation of samples were performed on real time PCR cycler (LightCycler® 480 Instrument II—Roche, Basel, Switzerland). The first derivative of the thermal denaturation curves was performed to calculate denaturing temperatures of STING-CDN complexes and STING apoproteins. The thermal shift for each CDN was calculated by subtracting the average denaturing temperature of STING apoprotein from the average denaturing temperature of STING CDN complex.

T1 sequence (Q86WV6 140-343 G230A/H232R/R293Q): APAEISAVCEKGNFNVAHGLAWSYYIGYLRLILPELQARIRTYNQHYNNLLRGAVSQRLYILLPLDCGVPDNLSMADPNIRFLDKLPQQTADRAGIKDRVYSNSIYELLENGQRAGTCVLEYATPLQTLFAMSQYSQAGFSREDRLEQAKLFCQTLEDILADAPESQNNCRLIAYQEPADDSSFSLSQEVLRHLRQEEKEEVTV

In order of falling ΔTm at 150 µM:
1. Nc1nc(N)c2ncn([C@@H]3O[C@@H]4COP(=O)(O)OC5C(O)[C@@H](COP(=O)(O)OC4C3F)C[C@H]5n3cnc4c(=O)[nH]c(N)nc43)c2n1 (stereo partly drawn) [Compound 117, (6R,8R,15R,17R)-17-(2-amino-6-oxo-6,9-dihydro-1H-purin-9-yl)-8-(2,6-diamino-9H-purin-9-yl)-9-fluoro-3,12,18-trihydroxy-2,4,7,11,13-pentaoxa-3λ^5,12λ^5-diphosphatricyclo[13.2.1.0^6,10]octadecane-3,12-dione]  17 °C
2. Nc1nc2c(ncn2[C@@H]2C[C@@H]3COP(=O)(S)OC4C(O)[C@H](n5cnc6c(N)ncnc65)O[C@@H]4COP(=O)(O)OC2C3O)c(=O)[nH]1 (stereo partly drawn) [Compound 118, (6R,8R,15R,17R)-17-(2-amino-6-oxo-6,9-dihydro-1H-purin-9-yl)-8-(6-amino-9H-purin-9-yl)-3,9,18-trihydroxy-12-sulfanyl-2,4,7,11,13-pentaoxa-3λ^5,12λ^5-diphosphatricyclo[13.2.1.0^6,10]octadecane-3,12-dione]  16 °C
3. Nc1nc2c(ncn2[C@@H]2C[C@@H]3COP(=O)(O)OC4C(O)[C@H](n5cnc6c(Cl)ncnc65)O[C@@H]4COP(=O)(O)OC2C3O)c(=O)[nH]1 (stereo partly drawn) [Compound 115, (6R,8R,15R,17R)-17-(2-amino-6-oxo-6,9-dihydro-1H-purin-9-yl)-8-(6-chloro-9H-purin-9-yl)-3,9,12,18-tetrahydroxy-2,4,7,11,13-pentaoxa-3λ^5,12λ^5-diphosphatricyclo[13.2.1.0^6,10]octadecane-3,12-dione]  14.2 °C
4. Nc1ncc2ncn([C@@H]3O[C@@H]4COP(=O)(O)OC5C(O)[C@@H](COP(=O)(O)OC4C3O)C[C@H]5n3cnc4c(=O)[nH]c(N)nc43)c2n1 (stereo partly drawn) [Compound 106, (6R,8R,15R,17R)-17-(2-amino-6-oxo-6,9-dihydro-1H-purin-9-yl)-8-(2-amino-9H-purin-9-yl)-3,9,12,18-tetrahydroxy-2,4,7,11,13-pentaoxa-3λ^5,12λ^5-diphosphatricyclo[13.2.1.0^6,10]octadecane-3,12-dione]  13.8 °C
5. Nc1nc2c(ncn2[C@@H]2C[C@@H]3COP(=O)(O)OC4C(F)[C@H](n5cnc6c(N)nc(F)nc65)O[C@@H]4COP(=O)(O)OC2C3O)c(=O)[nH]1 (stereo partly drawn) [Compound 111, (6R,8R,15R,17R)-8-(6-amino-2-fluoro-9H-purin-9-yl)-17-(2-amino-6-oxo-6,9-dihydro-1H-purin-9-yl)-9-fluoro-3,12,18-trihydroxy-2,4,7,11,13-pentaoxa-3λ^5,12λ^5-diphosphatricyclo[13.2.1.0^6,10]octadecane-3,12-dione]  13 °C
6. Nc1nc2c(ncn2[C@@H]2C[C@@H]3COP(=O)(O)OC4C(N)[C@H](n5cnc6c(N)ncnc65)O[C@@H]4COP(=O)(O)OC2C3O)c(=O)[nH]1 (stereo partly drawn) [Compound 109, (6R,8R,15R,17R)-9-amino-17-(2-amino-6-oxo-6,9-dihydro-1H-purin-9-yl)-8-(6-amino-9H-purin-9-yl)-3,12,18-trihydroxy-2,4,7,11,13-pentaoxa-3λ^5,12λ^5-diphosphatricyclo[13.2.1.0^6,10]octadecane-3,12-dione]  12.8 °C
7. CNc1ncnc2c1ncn2[C@@H]1O[C@@H]2COP(=O)(O)OC3C(O)[C@@H](COP(=O)(O)OC2C1O)C[C@H]3n1cnc2c(=O)[nH]c(N)nc21 (stereo partly drawn) [Compound 108, (6R,8R,15R,17R)-17-(2-amino-6-oxo-6,9-dihydro-1H-purin-9-yl)-3,9,12,18-tetrahydroxy-8-[6-(methylamino)-9H-purin-9-yl]-2,4,7,11,13-pentaoxa-3λ^5,12λ^5-diphosphatricyclo[13.2.1.0^6,10]octadecane-3,12-dione]  12.5 °C
8. Cc1cn([C@@H]2O[C@@H]3COP(=O)(O)OC4C(O)[C@@H](COP(=O)(O)OC3C2O)C[C@H]4n2cnc3c(=O)[nH]c(N)nc32)c2ncnc(N)c12 (stereo partly drawn) [Compound 113, (6R,8R,15R,17R)-8-{4-amino-5-methyl-7H-pyrrolo[2,3-d]pyrimidin-7-yl}-17-(2-amino-6-oxo-6,9-dihydro-1H-purin-9-yl)-3,9,12,18-tetrahydroxy-2,4,7,11,13-pentaoxa-3λ^5,12λ^5-diphosphatricyclo[13.2.1.0^6,10]octadecane-3,12-dione]  11.6 °C
9. C#Cc1cn([C@@H]2O[C@@H]3COP(=O)(O)OC4C(O)[C@@H](COP(=O)(O)OC3C2O)C[C@H]4n2cnc3c(=O)[nH]c(N)nc32)c2ncnc(N)c12 (stereo partly drawn) [Compound 114, (6R,8R,15R,17R)-8-{4-amino-5-ethynyl-7H-pyrrolo 2,3-dlpyrimidin-7-yl}-17-(2-amino-6-oxo-6,9-dihydro-1H-purin-9-yl)-3,9,12,18-tetrahydroxy-2,4,7,11,13-pentaoxa-3λ^5,12λ^5-diphosphatricyclo[13.2.1.0^6,10]octadecane-3,12-dione]  10.3 °C
10. CSc1ncnc2c1ncn2[C@@H]1O[C@@H]2COP(=O)(O)OC3C(O)[C@@H](COP(=O)(O)OC2C1O)C[C@H]3n1cnc2c(=O)[nH]c(N)nc21 (stereo partly drawn) [Compound 110, (6R,8R,15R,17R)-17-(2-amino-6-oxo-6,9-dihydro-1H-purin-9-yl)-3,9,12,18-tetrahydroxy-8-[6-(methylsulfanyl)-9H-purin-9-yl]-2,4,7,11,13-pentaoxa-3λ^5,12λ^5-diphosphatricyclo[13.2.1.0^6,10]octadecane-3,12-dione]  10.1 °C
11. Nc1nc2c(ncn2[C@@H]2C[C@@H]3COP(=O)(O)OC4C(O)[C@H](n5nnc6c(N)ncnc65)O[C@@H]4COP(=O)(O)OC2C3O)c(=O)[nH]1 (stereo partly drawn) [Compound 116, (6R,8R,15R,17R)-8-{7-amino-3H-[1,2,3]triazolo[4,5-d]pyrimidin-3-yl}-17-(2-amino-6-oxo-6,9-dihydro-1H-purin-9-yl)-3,9,12,18-tetrahydroxy-2,4,7,11,13-pentaoxa-3λ^5,12λ^5-diphosphatricyclo[13.2.1.0^6,10]octadecane-3,12-dione]  8.9 °C
12. Nc1nc2c(ncn2[C@@H]2C[C@@H]3COP(=O)(O)OC4C(O)[C@H](n5cnc6c(S)ncnc65)O[C@@H]4COP(=O)(O)OC2C3O)c(=O)[nH]1 (stereo partly drawn) [Compound 107, (6R,8R,15R,17R)-17-(2-amino-6-oxo-6,9-dihydro-1H-purin-9-yl)-3,9,12,18-tetrahydroxy-8-(6-sulfanyl-9H-purin-9-yl)-2,4,7,11,13-pentaoxa-3λ^5,12λ^5-diphosphatricyclo[13.2.1.0^6,10]octadecane-3,12-dione]  7.9 °C
13. CSc1nc(N)nc2c1ncn2[C@@H]1O[C@@H]2COP(=O)(O)OC3C(O)[C@@H](COP(=O)(O)OC2C1O)C[C@H]3n1cnc2c(=O)[nH]c(N)nc21 (stereo partly drawn) [Compound 112, (6R,8R,15R,17R)-8-[2-amino-6-(methylsulfanyl)-9H-purin-9-yl]-17-(2-amino-6-oxo-6,9-dihydro-1H-purin-9-yl)-3,9,12,18-tetrahydroxy-2,4,7,11,13-pentaoxa-3λ^5,12λ^5-diphosphatricyclo[13.2.1.0^6,10]octadecane-3,12-dione]  4.7 °C
